Paper PMC3280239, “Virtual Screening, Identification and In Vitro Testing of Novel Inhibitors of O-Acetyl-L-Serine Sulfhydrylase of Entamoeba histolytica” (PLoS ONE, 2012)
Read-outs that look alike come from different tables or passages of the source.

What was measured:
[1] = target: T1, O-acetyl-L-serine sulfhydrylase (EhOASS) (Entamoeba histolytica, UniProt O15570); assay: PLP fluorescence titration (ex […] nm, em […] nm); also […] inhibition of purified enzyme at […]; type: binding
[2] = target: T1, O-acetyl-L-serine sulfhydrylase (EhOASS); assay: as above; type: binding; remark: listed apart in the source

T1 sequence (O15570 entry or part of it): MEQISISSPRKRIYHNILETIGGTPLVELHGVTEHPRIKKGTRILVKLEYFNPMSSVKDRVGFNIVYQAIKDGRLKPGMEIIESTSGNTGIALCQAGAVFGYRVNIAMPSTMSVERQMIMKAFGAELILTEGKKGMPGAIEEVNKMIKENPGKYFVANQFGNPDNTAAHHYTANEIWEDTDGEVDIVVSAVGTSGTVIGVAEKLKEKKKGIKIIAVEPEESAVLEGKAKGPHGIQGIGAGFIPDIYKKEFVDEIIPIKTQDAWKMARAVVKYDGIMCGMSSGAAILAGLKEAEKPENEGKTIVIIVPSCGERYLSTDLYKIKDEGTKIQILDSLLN

`COc1ccc(C2C(C(C)=O)=C(O)C(=O)N2CCC(=O)O)cc1` (centres unmarked) [ZINC03984585, 3-[3-acetyl-4-hydroxy-2-(4-methoxyphenyl)-5-oxo-2,5-dihydro-1H-pyrrol-1-yl]propanoic acid] showed a Kd [1] of 0.18 µM.
`O=C(CSc1nc(O)cc(=O)[nH]1)c1c[nH]c2ccccc12` [ZINC08931589, 4-hydroxy-2-[2-(1H-indol-3-yl)-2-oxoethyl]sulfanyl-1H-pyrimidin-6-one] was tested, and the Kd [2] was ~8.05 µM.
